In patent US20250084041A1, “ANTIMICROBIAL COMPOUNDS AND METHODS” (Curza Global, LLC, priority 2021, published 2025) one finds MIC and IC50 data, which are given here for seven compounds.

The test system of one assay is E. coli (Ec). Description: Broth microdilution MIC, E. coli. The class given is cell-based. Particulars: Escherichia coli, read-out: E. coli + bicarb 25 (MIC). The method, then:
(§1) A certified BSL-2 laboratory was used for testing. Compounds were evaluated using the broth microdilution minimum inhibitory concentration (MIC) and minimum bactericidal concentration (MBC) assays defined by Clinical and Laboratory Standards Institute (CLSI) in the M26-A guideline against S. aureus (Sa), E. coli (Ec), K. pneumoniae (Kp), A. baumannii (Ab), E. faecalis (Ef) and P. aeruginosa (Pa).
(§2) MICs were determined using the Clinical Laboratory and Standards Institute (CLSI) Broth Microdilution Method with slight modification. Clinical and Laboratory Standards Institute (2012). “Methods for dilution antimicrobial susceptibility tests for bacteria that grow aerobically; approved standard, 9th ed. M07-A9. Clinical and Laboratory Standards Institute, Wayne, PA.” Serial two-fold dilutions of compounds are prepared in sterile clear round-bottom 96-well plates.
(§3) To prepare microdilution trays, two-fold dilutions of antimicrobial agent are prepared in growth medium: Cation-Adjusted Mueller-Hinton Broth (CAMHB), or CAMHB supplemented with sodium bicarbonate (25 mM final concentration prepared from a 1.0 M stock solution) or CAMHB supplemented with heat inactivated human serum (Fisher Cat. #BP2657100) 0-50% by adding 200 μL of the highest concentration to be tested (64 μg/mL, for example) in row A, mixing and transferring 100 μL from row A to 100 μL growth medium in row B, then repeating the mixing and transferring through row H of the 96-well plate, discarding the excess 100 μL remaining. This slight modification to the CLSI protocol enables evaluation of MICs for 3 compounds per plate in triplicate, albeit with only 8 compound dilutions (CLSI protocol enables 2 compounds in triplicate with 10 dilutions). Bacterial suspensions are added to a final concentration of 5×10^4 CFU/well by adding 5 μL of a 1:10 dilution of a 0.5 McFarland suspension (1×10^8 CFU/mL) for each bacterium evaluated. Bacterial suspensions were prepared using the growth method described by CLSI. Well-isolated colonies (3-5 from an agar plate) were selected using a sterile loop and used to inoculate a tube containing 4 mL of CAMHB. The cultures are incubated at 35±2° C. until it achieves or exceeds the turbidity of the 0.5 McFarland standard, determined by measuring A600nm (usually two to six hours). When growth exceeds a 0.5 McFarland standard, the turbidity is adjusted with broth to be equivalent to a 0.5 McFarland standard.
Background: Dilution methods test growth across graded concentrations, often in twofold steps.

In a further assay the test system is P. aeruginosa (Pa). The experiment in a line: Broth microdilution MIC, P. aeruginosa. The format is cell-based. Particulars: Pseudomonas aeruginosa, read-out: Pa + bicarb 25 (MIC). The method, then: as §1, §2, §3
A further assay relates to E. coli S30 extract. The experiment in a line: E. coli S30 extract: inhibition of bacterial protein synthesis (luciferase). The class given is biochemical. Particulars: 37° C. 1 hour. The procedure: E. coli S30 extract: Inhibition of bacterial protein synthesis was determined using the E. coli S30 Extract System for Circular DNA (Promega catalog #L-2010) and Luciferase Assay Reagent (Promega catalog #E1500) with slight modifications to a published protocol. Fyfe, C., Sutcliffe, J. A. and Grossman, T. H. (2012) “Development and characterization of a Pseudomonas aeruginosa in vitro coupled transcription-translation assay system for evaluation of translation inhibitors” J. Microbiol. Methods 90(3), 256-261.
Compounds were serial diluted in 0.5 mL microcentrifuge tubes by mixing and transferring 50 μL from the highest concentration to 50 μL of water, mixing and transferring 50 μL of this 2-fold dilution to 50 μL of water. This mixing and transferring was repeated so that there are a total of 8 tubes with serial dilutions of compound at 10× the desired screening concentration that are ultimately diluted to 1× by the addition of S30 luciferase synthesis mixture. Serial dilutions of compounds were added (2 μL) to wells in a black round bottom 96-well plate. Water (2 μL) was used as a “no inhibitor” control in 4 wells/plate. No DNA control reaction mixture (20 μL; see below) was used as a control in 4 wells/plate for background luminescence. S30 luciferase synthesis mixture (18 μL; see below) was added to wells with compounds or water mixture and incubated at 37° C. for 1 hour. Reactions were stopped by transferring to 4° C. refrigerator for 5 minutes then 25 μL of luciferase activity mix was added. Luminescence was measured using a BioTek Synergy HTX plate reader. % Inhibition was determined relative to no inhibitor controls.
• 445 μL S30 extract, circular • 712 μL S30 Premix without amino acids • 4.45 μL pBESTluc™ DNA (1 μg/μL) • 78 μL complete amino acid mixture • 267 μL water
• 20 μL S30 extract, circular • 32 μL S30 Premix without amino acids • 7 μL complete amino acid mixture • 21 μL water

In a further assay the test system is E. faecalis (Ef). The experiment in a line: Broth microdilution MIC, E. faecalis. The format is cell-based. Particulars: Enterococcus faecalis, read-out: Ef + bicarb 25 (MIC). The procedure:
as §1, §2, §3

A further assay concerns A. baumannii (Ab). Description: Broth microdilution MIC, A. baumannii. The class given is cell-based. Particulars: Acinetobacter baumannii, read-out: Ab + bicarb 25 (MIC). The method, then: as §1, §2, §3
The subject of the next assay is S. aureus (Sa). Description: Broth microdilution MIC, S. aureus. The class given is cell-based. Particulars: Staphylococcus aureus, read-out: Sa + bicarb 25 (MIC). The procedure:
as §1, §2, §3

The target in assay [1] is Rabbit Reticulocyte Lysate. Description: Rabbit Reticulocyte Lysate: inhibition of eukaryotic protein synthesis (luciferase). The class given is biochemical. Particulars: 30° C. 90 minutes, read-out: Retic. IC50. The procedure:
Inhibition of eukaryotic protein synthesis was determined using the Rabbit Reticulocyte Lysate System, Nuclease-Treated from Promega (catalog #L-4960) with slight modifications to the manufacturer's protocol. Compounds were serial diluted in 0.5 mL microcentrifuge tubes by mixing and transferring 50 μL from the highest concentration to 50 μL of water, mixing and transferring 50 μL of this 2-fold dilution to 50 μL of water. This mixing and transferring was repeated so that there are a total of 8 tubes with serial dilutions of compound at 10× the desired screening concentration that are ultimately diluted to 1× by the addition of rabbit reticulocyte luciferase synthesis mixture. Serial dilutions of compounds were added ([…]) to wells in a black round bottom 96-well plate. Water (2.5 μL) was used as a “no inhibitor” control in 4 wells/plate. No RNA control reaction mixture ([…]; see below) was used as a control in 4 wells/plate for background luminescence. Rabbit reticulocyte luciferase synthesis mixture (22.5 μL; see below) was added to wells with compounds or water mixture and incubated at 30° C. for 90 minutes. Luciferase assay reagent (25 μL) was added with luminescence measured using a BioTek Synergy HTX plate reader. % Inhibition was determined relative to no inhibitor controls.
• 1,000 μL rabbit reticulocyte lysate • 5.7 μL Luciferase Control RNA (1 μg/μL) • 26 μL complete amino acid mixture • 395 μL water
• 70 μL rabbit reticulocyte lysate • 2 μL complete amino acid mixture • 28 μL water

Molecules are shown by their SMILES. Structures can show the parent of a compound that is named as a salt. Where two headings read alike, the source gives them in different places. Some results are limits rather than exact numbers.

Consider `CC(C)(N)C(=O)N1CCN(C(=O)Nc2ccn(C3CCC(CN4CCC5(N)CC5C4)CC3)c(=O)n2)CC1` (centres unmarked) [Compound 45, 4-(2-Amino-2-methylpropanoyl)-N-(1-(4-((6-amino-3-azabicyclo[4.1.0]heptan-3-yl)methyl)cyclohexyl)-2-oxo-1,2-dihydropyrimidin-4-yl)piperazine-1-carboxamide hydrochloride salt], for which the MIC (in general, the lowest concentration found to suppress growth) in the assay on E. coli (Ec) was < 8 µg/mL; in the assay on P. aeruginosa (Pa), > 32 µg/mL; in the assay on E. faecalis (Ef) it was < 8 µg/mL; in the assay with A. baumannii (Ab) it was > 32 µg/mL; in the assay on S. aureus (Sa) it was < 8 µg/mL. In addition, the results for the IC50 (in the assay with E. coli S30 extract; in assay [1]) were < 500 nM and ≥ 1000 nM, respectively.
In the case of `CN(C[C@H]1CC[C@H](n2ccc(NC(=O)N3CCN(C(=O)C(C)(C)N)CC3)nc2=O)CC1)[C@H]1CC[C@H](N)CC1` [Compound 19, 4-(2-Amino-2-methylpropanoyl)-N-(1-(trans-4-(((trans-4-aminocyclohexyl)(methyl)amino)methyl)cyclohexyl)-2-oxo-1,2-dihydropyrimidin-4-yl)piperazine-1-carboxamide hydrochloride salt], the MIC was < 8 µg/mL in the assay with E. coli (Ec); > 32 µg/mL with P. aeruginosa (Pa); < 8 µg/mL in the assay on E. faecalis (Ef); 8 to 32 µg/mL in the assay with A. baumannii (Ab); < 8 µg/mL in the assay on S. aureus (Sa). In addition, the IC50 (commonly the concentration that inhibits the measured activity by half) with E. coli S30 extract was < 500 nM; in assay [1], ≥ 1000 nM.
As for `CC(C)(N)C(=O)N1CCN(C(=O)Nc2ccn(C3CCC(CN[C@H]4C[C@@H](N)C4)CC3)c(=O)n2)CC1` (stereo partly drawn) [Compound 44, cis-4-(2-Amino-2-methylpropanoyl)-N-(1-(4-(((3-aminocyclobutyl)amino)methyl)cyclohexyl)-2-oxo-1,2-dihydropyrimidin-4-yl)piperazine-1-carboxamide hydrochloride salt], the MIC with E. coli (Ec) was < 8 µg/mL; with P. aeruginosa (Pa) it was > 32 µg/mL; in the assay with E. faecalis (Ef) it was 8 to 32 µg/mL; in the assay with A. baumannii (Ab), > 32 µg/mL; in the assay with S. aureus (Sa), < 8 µg/mL. The IC50 in the assay with E. coli S30 extract is < 500 nM; in assay [1], ≥ 1000 nM.
Consider `CC(C)(N)C(=O)N1CCN(C(=O)Nc2ccn(C3=CCC(CN4C[C@@H]5[C@@H](N)[C@@H]5C4)CC3)c(=O)n2)CC1` (stereo partly drawn) [Compound 12, 4-(2-Amino-2-methylpropanoyl)-N-(1-(4-(((1R,5S,6s)-6-amino-3-azabicyclo[3.1.0]hexan-3-yl)methyl)cyclohex-1-en-1-yl)-2-oxo-1,2-dihydropyrimidin-4-yl)piperazine-1-carboxamide hydrochloride salt], for which the MIC was < 8 µg/mL in the assay with E. coli (Ec) (E. coli, CAMHB supplemented with sodium bicarbonate 25 mM); > 32 µg/mL in the assay with P. aeruginosa (Pa) (P. aeruginosa, CAMHB supplemented with sodium bicarbonate 25 mM); < 8 µg/mL in the assay on E. faecalis (Ef) (E. faecalis, CAMHB supplemented with sodium bicarbonate 25 mM); 8 to 32 µg/mL in the assay with A. baumannii (Ab) (A. baumannii, CAMHB supplemented with sodium bicarbonate 25 mM); < 8 µg/mL in the assay on S. aureus (Sa) (S. aureus, CAMHB supplemented with sodium bicarbonate 25 mM). In addition, the IC50 in the assay on E. coli S30 extract is < 500 nM; in assay [1], ≥ 1000 nM.
On to `CC(C)(N)C(=O)N1CCN(C(=O)Nc2ccn([C@H]3CC[C@H](CN4CC[C@H](CN)C4)CC3)c(=O)n2)CC1` [Compound 51, (R)-Trans-4-(2-amino-2-methylpropanoyl)-N-(1-(4-((3-(aminomethyl)pyrrolidin-1-yl)methyl)cyclohexyl)-2-oxo-1,2-dihydropyrimidin-4-yl)piperazine-1-carboxamide Hydrochloride], for which the MIC in the assay on E. coli (Ec) was < 8 µg/mL; in the assay with P. aeruginosa (Pa) it was > 32 µg/mL; in the assay on E. faecalis (Ef), 8 to 32 µg/mL; in the assay with A. baumannii (Ab), > 32 µg/mL; in the assay with S. aureus (Sa) it was < 8 µg/mL. Also, the concentration for half-maximal inhibition (IC50) with E. coli S30 extract was < 500 nM; in assay [1], ≥ 1000 nM.
For the compound `CC(C)(N)C(=O)N1CCN(C(=O)Nc2ccn([C@H]3CC[C@H](CN(CCF)[C@H]4CC[C@H](N)CC4)CC3)c(=O)n2)CC1` [Compound 49, trans-trans-4-(2-amino-2-methylpropanoyl)-N-(1-(4-(((4-aminocyclohexyl)(2-fluoroethyl)amino)methyl)cyclohexyl)-2-oxo-1,2-dihydropyrimidin-4-yl)piperazine-1-carboxamide hydrochloride salt], the MIC is < 8 µg/mL in the assay on E. coli (Ec), 8 to 32 µg/mL with E. faecalis (Ef), > 32 µg/mL in the assay with A. baumannii (Ab) and < 8 µg/mL with S. aureus (Sa). The values for the IC50 (in the assay with E. coli S30 extract; in assay [1]) were < 500 nM and ≥ 1000 nM, respectively.
For `CCN(CC1CC=C(n2ccc(NC(=O)N3CCN(C(=O)C(C)(C)N)CC3)nc2=O)CC1)[C@H]1CC[C@H](N)CC1` (stereo partly drawn) [Compound 31, trans-4-(2-Amino-2-methylpropanoyl)-N-(1-(4-(((4-aminocyclohexyl)(ethyl)amino)methyl)cyclohex-1-en-1-yl)-2-oxo-1,2-dihydropyrimidin-4-yl)piperazine-1-carboxamide hydrochloride salt], the MIC in the assay with E. coli (Ec) was < 8 µg/mL; in the assay on P. aeruginosa (Pa), > 32 µg/mL; in the assay on E. faecalis (Ef) it was < 8 µg/mL; in the assay with S. aureus (Sa) it was < 8 µg/mL. The IC50 with E. coli S30 extract was < 500 nM; in assay [1] it was ≥ 1000 nM.
